The text below walks through data of PubChem BioAssay (NCI).

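These data come from cells grown in 96-well plates and exposed to compound for 48 hours at five concentrations. GI50 is the concentration that inhibits growth by half. TGI: concentration producing complete growth inhibition.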

Among the test systems are CCRF-CEM leukemia; HT29 colon; MOLT-4 leukemia; NCI-H460 lung; RPMI-8226 leukemia; SN12C renal; TK-10 renal.
Common to all, as to test: DTP human tumour cell line panel, 48 h

Usually GI50 stands for the concentration that inhibits growth by half. As a reminder, the TGI is the concentration at which net growth stops. High values mean less potent growth arrest, low ones more potent growth arrest. For the compound `CCC[CH2][Sn]1([CH2]CCC)[O]C(c2ccccn2)S(=O)(=O)[O]1` (stereo not given), the GI50 is 1.54 µM with CCRF-CEM leukemia; 3.79 µM in the assay on HT29 colon; 2.84 µM in the assay with MOLT-4 leukemia; 16.8 µM with NCI-H460 lung; 2.23 µM in the assay with RPMI-8226 leukemia; 9.11 µM with SN12C renal. Also, the GI50 with TK-10 renal was 2.54 µM. Also, the TGI in the assay on CCRF-CEM leukemia was found to be 4.19 µM; with HT29 colon, 12.2 µM; with MOLT-4 leukemia it was 7.51 µM; in the assay with NCI-H460 lung, 30.4 µM; with RPMI-8226 leukemia, 6.46 µM; with SN12C renal, 21.1 µM. The compound further yielded a TGI in the assay with TK-10 renal of 5.84 µM.
For the compound `CCOC(=O)C12CCCC1(O)N(NC(=O)c1cccc(Cl)c1)C(C)=C2C(=O)OC` (stereo not given), the total growth inhibition concentration (TGI) in the assay with HT29 colon, in the assay on MOLT-4 leukemia, in the assay on NCI-H460 lung, with RPMI-8226 leukemia and in the assay with SN12C renal was > 100 µM throughout.
For the compound `CSc1ccc(-c2cn3ccsc3n2)c(O)c1`, the TGI in the assay on CCRF-CEM leukemia is > 60.9 µM; with HT29 colon, > 100 µM; in the assay with MOLT-4 leukemia, > 100 µM; in the assay with NCI-H460 lung, > 87.4 µM; in the assay on RPMI-8226 leukemia it was > 65 µM; in the assay with SN12C renal, > 100 µM. Also, in the assay on TK-10 renal, the TGI was > 100 µM.
As to `O=C(O)/C(Cl)=C(\Cl)Nc1cccc(C(F)(F)F)c1`, the TGI in the assay with CCRF-CEM leukemia, in the assay with HT29 colon, with NCI-H460 lung, in the assay on SN12C renal and in the assay with TK-10 renal was > 100 µM in each case.
`COC(=O)C1=CC(O)CCC1c1ccc(OC)cc1` (stereo not given): the TGI in the assay on CCRF-CEM leukemia, with HT29 colon, in the assay on MOLT-4 leukemia, with NCI-H460 lung, in the assay on RPMI-8226 leukemia and with SN12C renal was > 100 µM throughout. In the assay with TK-10 renal, the TGI was > 100 µM.
Turning to `C/C(=N\O)c1sc(-n2nc(-c3ccccc3)cc2-c2ccccc2)nc1C`, the TGI worked out at 25.6 µM with CCRF-CEM leukemia; 19 µM with HT29 colon; 25.5 µM in the assay on MOLT-4 leukemia; 21.6 µM in the assay with NCI-H460 lung; 23.6 µM in the assay with RPMI-8226 leukemia; 15.4 µM in the assay with SN12C renal.
As for `c1cncc(C2c3[nH]c4ccccc4c3CCN2CCCN2CCCCC2)c1` (stereo not given), the TGI in the assay with HT29 colon, in the assay on MOLT-4 leukemia, with NCI-H460 lung, with RPMI-8226 leukemia, in the assay with SN12C renal and in the assay on TK-10 renal was > 100 µM throughout.
For the compound `COc1ccc2cc(C(=O)c3ccccc3C(=O)O)ccc2c1`, the TGI in the assay on CCRF-CEM leukemia, with HT29 colon, with MOLT-4 leukemia, with NCI-H460 lung, in the assay on SN12C renal and in the assay with TK-10 renal was > 100 µM throughout.
Regarding `CC(=O)[CH-]C(=O)c1ccccc1.CC(=O)[CH-]C(=O)c1ccccc1.O=C([O-])C[O-].O=C([O-])C[O-].[Ti+4]`, the GI50 in the assay with HT29 colon was 27.7 µM; in the assay on MOLT-4 leukemia, 27.7 µM; in the assay with NCI-H460 lung it was 28.4 µM; in the assay with RPMI-8226 leukemia it was 49.9 µM; in the assay with SN12C renal it was 60.5 µM. For the same compound, the TGI in the assay on HT29 colon was 91.7 µM; with MOLT-4 leukemia it was > 100 µM; in the assay on NCI-H460 lung it was > 100 µM; in the assay with RPMI-8226 leukemia, > 100 µM; with SN12C renal, > 100 µM.
For the compound `COc1ccc2[nH]c3c4c(c5cc(C(C)(C)C)ccc5c3c2c1)C(=O)N(c1ccccc1)C4=O`, the TGI with HT29 colon, with MOLT-4 leukemia, in the assay on NCI-H460 lung, in the assay with RPMI-8226 leukemia and in the assay on TK-10 renal was > 100 µM throughout.
Take `COc1cc(C(=O)C/C(CCC(=O)Nc2ccccc2[N+](=O)[O-])=N\NC(=O)C(N)=O)ccc1O`: the TGI in the assay with CCRF-CEM leukemia, in the assay with HT29 colon, in the assay on MOLT-4 leukemia, in the assay on NCI-H460 lung and in the assay with TK-10 renal was > 100 µM in each case.
For the compound `CCOC(=O)/C(=C/c1ccc(OC)c(OC)c1)C(=O)c1ccccc1`, the TGI in the assay on CCRF-CEM leukemia is 55.1 µM; with HT29 colon it was 30.8 µM; in the assay with MOLT-4 leukemia, 48.9 µM; in the assay with NCI-H460 lung it was > 100 µM; with RPMI-8226 leukemia it was 39.1 µM; in the assay with TK-10 renal, 65.4 µM.
As to `Cc1ccc(-c2csc(N(C(=O)N3CCN(c4cc5c(cc4F)c(=O)c(C(=O)O)cn5C4CC4)CC3)c3ccccc3)n2)cc1`, the GI50 was 0.331 µM with NCI-H460 lung, 0.368 µM with RPMI-8226 leukemia and 0.541 µM with TK-10 renal. The TGI is > 100 µM with NCI-H460 lung, > 100 µM in the assay with RPMI-8226 leukemia and 11.5 µM in the assay on TK-10 renal.
On to `Cc1cc(C)c(C(=O)O)c(N)c1O`, for which the TGI in the assay on CCRF-CEM leukemia, in the assay on HT29 colon, in the assay with MOLT-4 leukemia, in the assay with RPMI-8226 leukemia, with SN12C renal and in the assay with TK-10 renal was > 100 µM throughout.
With `Cc1cc(N(CCC#N)CCC#N)ccc1/C=C1/CN(N2C(=O)/C(=C/c3ccc(N(CCC#N)CCC#N)cc3C)N=C2c2ccccc2)C(c2ccccc2)=N1`, the TGI with CCRF-CEM leukemia is > 100 µM; with HT29 colon, > 100 µM; in the assay on MOLT-4 leukemia it was > 100 µM; with NCI-H460 lung, > 100 µM; in the assay with SN12C renal, > 100 µM; in the assay on TK-10 renal, 75.9 µM.
